Laboratory results taken from patent US20120040951A1, “HETEROARYL COMPOUNDS USEFUL AS RAF KINASE INHIBITORS” (priority 2008, published 2012).

What was measured:
[1] = system: phospho-ERK in melanoma derived WM-266-4 cells; assay: Mechanistic cellular assay for Raf kinase activity (phospho-ERK, Bio-Plex); assay type: cell-based; settings: Homo sapiens, treated 1-2 hr at 37° C., serum free medium, read-out: pERK EC50
How it was run: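 WM-266-4 melanoma cells (wild-type/V600D BRaf) grown overnight in 10% FBS RPMI, then treated 1–2 h at 37 °C in serum-free RPMI with eight 3-fold dilutions of compound (from 5 mM DMSO stock, 1000× dilution). Lysate phospho-ERK1,2 quantified by Bio-Plex bead immunoassay.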

V599E Raf = V599E Raf (Homo sapiens, UniProt P15056, V600E); assay: Biochemical FRET assay, mutant Raf (phosphorylation of MEK); settings: 0.125 nM V599E Raf, 100 nM biotin-MEK, 25 μM ATP, read-out: Raf (mut) inhibition
Experimental: (1) Biochemical FRET Assay […]
Inhibitors were diluted 4-fold in 100% DMSO and added to a final concentration of 10 μM to 40 μM to a solution containing 100 nM biotin-MEK, 0.125 nM V599E Raf in 50 mM HEPES, pH 7.4, 60 mM NaCl, 3 mM MgCl2, 2 mM DTT, 0.25 mM MnCl2, 0.01% BSA, and 0.01% Tween-20 and incubated for 20 minutes at room temperature. The kinase reaction was started by the addition of 25 μM ATP to a final volume of 45 μl and allowed to progress for 60 minutes. The reaction was stopped with 15 mM EDTA and 20 nM Streptavidin-APC, 2.5 nM Polyclonal anti p-MEK1/2 (Ser217/221), 2.5 nM Eu-labeled anti-rabbit IgG were added in Lance detection buffer and 5% Superblock in PBS for a final volume of 100 μl. The detection reaction was incubated for 90 minutes at room temperature and then read on an Analyst plate reader using standard TR-FRET (time resolved fluorescence resonance energy transfer) settings for Eu and APC.
Compounds having an activity designated as “A” provided an IC50≦100 nM; compounds having an activity designated as “B” provided an IC50 of 100-1000 nM; and compounds having an activity designated as “C” provided an IC50 of 1000-10,000 nM.

Sequence of V599E Raf (P15056 whole entry V600E): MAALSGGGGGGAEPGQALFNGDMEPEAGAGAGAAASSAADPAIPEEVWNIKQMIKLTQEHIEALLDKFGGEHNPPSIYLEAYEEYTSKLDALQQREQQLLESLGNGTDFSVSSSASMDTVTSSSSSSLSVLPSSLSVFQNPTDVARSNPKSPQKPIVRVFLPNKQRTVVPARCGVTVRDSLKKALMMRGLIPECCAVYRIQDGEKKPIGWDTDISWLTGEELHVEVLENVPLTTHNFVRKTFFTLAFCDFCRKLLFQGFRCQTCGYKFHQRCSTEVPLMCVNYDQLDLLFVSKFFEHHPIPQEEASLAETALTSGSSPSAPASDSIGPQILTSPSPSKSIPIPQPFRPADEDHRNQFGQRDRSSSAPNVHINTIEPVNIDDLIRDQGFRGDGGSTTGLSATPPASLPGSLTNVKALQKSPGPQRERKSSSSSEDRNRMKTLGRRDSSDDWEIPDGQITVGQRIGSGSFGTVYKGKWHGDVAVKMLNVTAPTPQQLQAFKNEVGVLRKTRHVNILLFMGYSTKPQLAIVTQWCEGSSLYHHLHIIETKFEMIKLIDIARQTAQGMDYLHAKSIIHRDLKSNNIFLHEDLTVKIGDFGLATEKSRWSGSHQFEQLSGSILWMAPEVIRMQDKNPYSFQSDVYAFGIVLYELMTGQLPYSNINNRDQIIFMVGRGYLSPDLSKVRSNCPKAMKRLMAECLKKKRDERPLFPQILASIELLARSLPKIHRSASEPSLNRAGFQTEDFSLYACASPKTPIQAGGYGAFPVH

EC50 [1] [nM]	IC50 (V599E Raf) [nM]	SMILES
100 to 1000	100 to 1000	C[C@@H](NC(=O)c1cnn(-c2ccccc2)c1N)c1ncc(C(=O)Nc2cc(C(F)(F)F)c(Cl)cn2)s1 [Example 121]
1000 to 10000	≤ 100	C[C@@H](NC(=O)c1cnn2ccccc12)c1cc(C(=O)Nc2nc3ccccc3[nH]2)on1 [Example 211]
1000 to 10000	100 to 1000	CC(NC(=O)c1cc2c(cn1)ncn2C)c1cnc(Nc2cc(C(=O)O)cc(C(C)(C)C)c2)s1 (stereo not drawn) [Example 352]
1000 to 10000	≤ 100	C[C@@H](NC(=O)c1cscn1)c1ncc(C(=O)Nc2cc(C(F)(F)F)c(Cl)cn2)s1 [Example 95]
1000 to 10000	100 to 1000	CC(=O)Nc1cccc(C(=O)N[C@H](C)c2ncc(C(=O)Nc3cc(C(F)(F)F)c(Cl)cn3)s2)n1 [Example 93]
1000 to 10000	100 to 1000	Cc1nc(C(C)NC(=O)c2cc3c(cn2)ncn3C)c(C)nc1Nc1ccc(C(F)(F)F)cc1 (stereo not drawn) [Example 341]
≤ 100	≤ 100	CC(NC(=O)c1cnn2cc(-c3cccnc3)ccc12)c1ncc(C(=O)Nc2cc(C(F)(F)F)c(Cl)cn2)s1 (stereo not drawn) [Example 320]
1000 to 10000	≤ 100	C[C@H](NC(=O)c1cc2c(cn1)ncn2C)c1cnc(Nc2ccc(C(F)(F)F)cc2)s1 [Example 3]
1000 to 10000	100 to 1000	Cc1cn(-c2cccc(C(=O)N[C@H](C)c3ncc(C(=O)Nc4cc(C(F)(F)F)c(Cl)cn4)s3)n2)cn1 [Example 334]
100 to 1000	≤ 100	Cc1nc2cc(C(=O)N[C@H](C)c3ncc(C(=O)Nc4cc(C(F)(F)F)c(Cl)cn4)s3)ccc2[nH]1 [Example 49]
100 to 1000	100 to 1000	COc1ccc(C(F)(F)F)cc1NC(=O)c1cc([C@@H](C)NC(=O)c2cnn3ccccc23)no1 [Example 214]
1000 to 10000	≤ 100	CC(NC(=O)c1cc2ncn(C)c2cn1)c1cnc(Nc2ccc(C(F)(F)F)cc2)s1 (stereo not drawn) [Example 1]
1000 to 10000	100 to 1000	C[C@H](NC(=O)c1cc2c(cn1)ncn2C1CCC1)c1cnc(Nc2ccc(C(F)(F)F)cc2)cn1 [Example 187]
≤ 100	≤ 100	CC(C)N1CC(n2cnc3cnc(C(=O)N[C@H](C)c4cnc(Nc5ccc(C(F)(F)F)cc5)s4)cc32)C1 [Example 183]
1000 to 10000	≤ 100	CCN1CCn2c(C(=O)NC(C)c3cnc(Nc4ccc(C(F)(F)F)cc4)s3)cnc2C1 (stereo not drawn) [Example 318]
100 to 1000	≤ 100	CCn1cnc2cnc(C(=O)NC(C)c3cnc(Nc4ccc(Cl)c(C(F)(F)F)c4)cn3)cc21 (stereo not drawn) [Example 233]
1000 to 10000	100 to 1000	C[C@@H](NC(=O)c1ccc(N)cc1)c1ncc(C(=O)Nc2cc(C(F)(F)F)c(Cl)cn2)s1 [Example 54]
1000 to 10000	≤ 100	C[C@@H](NC(=O)c1cccc(N)n1)c1ncc(C(=O)Nc2cc(C(F)(F)F)c(Cl)cn2)s1 [Example 92]
1000 to 10000	≤ 100	C[C@@H](NC(=O)c1cnn2ccccc12)c1cc(C(=O)Nc2nc3cc(Cl)ccc3o2)on1 [Example 212]
1000 to 10000	100 to 1000	Cc1nn(C)cc1C(=O)N[C@H](C)c1ncc(C(=O)Nc2cc(C(F)(F)F)c(Cl)cn2)s1 [Example 123]
1000 to 10000	≤ 100	CC(NC(=O)c1cnc2ncccn12)c1cnc(Nc2ccc(C(F)(F)F)cc2)s1 (stereo not drawn) [Example 310]
1000 to 10000	100 to 1000	Cc1cn(-c2cncc(C(=O)NC(C)c3ncc(C(=O)Nc4cc(C(F)(F)F)c(Cl)cn4)s3)c2)cn1 (stereo not drawn) [Example 51]
1000 to 10000	≤ 100	C[C@@H](NC(=O)c1csc(-c2ccncc2)n1)c1ncc(C(=O)Nc2cc(C(F)(F)F)c(Cl)cn2)s1 [Example 97]
100 to 1000	≤ 100	CC(NC(=O)c1cc2c(cn1)ncn2C)c1ccc(Nc2ccc(C(F)(F)F)cc2)nc1 (stereo not drawn) [Example 339]
≤ 100	≤ 100	CCN1CC[C@@H](n2cnc3cnc(C(=O)N[C@H](C)c4cnc(Nc5ccc(C(F)(F)F)cc5)s4)cc32)C1 [Example 28]
≤ 100	≤ 100	CC(NC(=O)c1cc2c(cn1)ncn2C)c1cnc(Nc2cccc(S(=O)(=O)C(F)(F)F)c2)cn1 (stereo not drawn) [Example 243]
100 to 1000	100 to 1000	CC(NC(=O)c1ccnc(N2CCOCC2)c1)c1ncc(C(=O)Nc2cc(C(F)(F)F)c(Cl)cn2)s1 (stereo not drawn) [Example 89]
